Among the test systems are A498; A549; ACHN; HCC 2998; HCT-116; Hs-578T; K562; KM12; NCI-H460; NCI-H522; OVCAR-5; PC-3; RXF 393; SF-295; SK-MEL-28; SNB-19; TK-10; MCF7.
Holding throughout (experiment): NCI tumour cell line growth inhibition, 48 h

Molecules are shown by their SMILES.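 Exposure lasted 48 hours, with cells grown in 96-well plates and compounds tested at five concentrations. The concentration for 50% growth inhibition is given as GI50.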 Active and inactive are the calls of the source. No stated cut-off is given here; in the data, active = GI50 up to about 1.1 µM and inactive = higher.

For `COC(=O)CC(SCCO)SCCO`, the GI50 with A498, in the experiment with A549, in the experiment with ACHN, with HCC 2998, with HCT-116 and with Hs-578T was > 100 µM (inactive) each time. For the same molecule, the GI50 with K562 was > 100 µM (inactive); with KM12 it was > 100 µM (inactive); with NCI-H460, 70.3 µM (inactive); in the experiment on NCI-H522, > 100 µM (inactive); with OVCAR-5, > 100 µM (inactive); with PC-3, > 100 µM (inactive). Also, the GI50 with RXF 393, in the experiment on SF-295, in the experiment on SK-MEL-28, with SNB-19 and with TK-10 was > 100 µM (inactive) in each case.
As for `N=C(N)NS(=O)(=O)c1ccc(NNc2c3ccccc3nc3c(C(=O)Nc4ccc(S(=O)(=O)Nc5ncccn5)cc4)cccc23)cc1`, the GI50 in the experiment with A498 is > 100 µM (inactive); in the experiment with A549, 47.8 µM (inactive); with ACHN it was 31 µM (inactive); with HCC 2998 it was 50.8 µM (inactive); with HCT-116, 28.4 µM (inactive); with K562, 27.2 µM (inactive). In addition, the GI50 with KM12 is 30.6 µM (inactive); with MCF7, 31.5 µM (inactive); in the experiment with NCI-H460, 45.3 µM (inactive); in the experiment on NCI-H522 it was 19.3 µM (inactive); with OVCAR-5, 74.8 µM (inactive); in the experiment with PC-3 it was 33.7 µM (inactive). In addition, the GI50 was 29 µM (inactive) in the experiment with RXF 393, 40.2 µM (inactive) in the experiment on SF-295, 55.1 µM (inactive) in the experiment with SK-MEL-28 and 50.1 µM (inactive) in the experiment on SNB-19.
For `Fc1ccc(-c2sc(-c3cccs3)cc2Cc2cccs2)cc1`, the GI50 in the experiment on A498, with A549, in the experiment on ACHN, in the experiment with HCC 2998, with HCT-116 and in the experiment with Hs-578T was > 100 µM (inactive) each time. Also, the GI50 with K562, in the experiment with KM12, in the experiment with MCF7, in the experiment with NCI-H460, in the experiment with NCI-H522 and with OVCAR-5 was > 100 µM (inactive) in each case. For the same molecule, the GI50 in the experiment on RXF 393 is 50.6 µM (inactive); in the experiment with SF-295, > 100 µM (inactive); with SK-MEL-28 it was > 100 µM (inactive); in the experiment on SNB-19 it was > 100 µM (inactive); with TK-10, > 100 µM (inactive).
As for `C#CC1(OC(C)=O)CCC2C3CC=C4C=C(OC(C)=O)CCC4(C)C3CCC21C` (configuration not stated), the GI50 was 46.6 µM (inactive) in the experiment on A498; 31.6 µM (inactive) with A549; 26.7 µM (inactive) in the experiment on ACHN; 16 µM (inactive) in the experiment with HCC 2998; 16.2 µM (inactive) with HCT-116; 40.4 µM (inactive) in the experiment with Hs-578T. In addition, the GI50 with K562 is 23.9 µM (inactive); with KM12 it was 20.4 µM (inactive); with MCF7, 24.5 µM (inactive); in the experiment with NCI-H460, 27 µM (inactive); with NCI-H522 it was 17.4 µM (inactive); in the experiment with OVCAR-5 it was 34.7 µM (inactive). Further, the GI50 in the experiment with SF-295 is 25.2 µM (inactive); in the experiment on SK-MEL-28 it was 25.9 µM (inactive); in the experiment on SNB-19, 32.4 µM (inactive); in the experiment with TK-10, 24.3 µM (inactive).
With `COc1ccc2c(c1)[n+]([O-])c1cc(C#N)ccc1[n+]2[O-]`, the GI50 in the experiment on A549 was 0.378 µM (active); with ACHN, 1.69 µM (inactive); with HCT-116, 11.1 µM (inactive); in the experiment with Hs-578T, 2.07 µM (inactive); with K562, 6.76 µM (inactive); with KM12, 2.38 µM (inactive). Also, the GI50 is 4.84 µM (inactive) with MCF7; 0.547 µM (active) with NCI-H460; 5.62 µM (inactive) with NCI-H522; 15.2 µM (inactive) in the experiment on OVCAR-5; 2.43 µM (inactive) with PC-3; 47.2 µM (inactive) in the experiment with RXF 393. Besides, the GI50 in the experiment on SF-295 was 0.767 µM (active); in the experiment with SK-MEL-28 it was 12.9 µM (inactive); in the experiment on SNB-19 it was 7.87 µM (inactive); in the experiment on TK-10, 3.21 µM (inactive).
As for `CC1=NNC(=O)C1C1C(=O)NN=C(c2c[nH]c3ccccc23)C1Br` (configuration not stated), the GI50 is > 100 µM (inactive) in the experiment with A498; 41.8 µM (inactive) in the experiment with A549; 42.3 µM (inactive) in the experiment with ACHN; 35.7 µM (inactive) in the experiment on HCT-116; 28 µM (inactive) in the experiment with Hs-578T; 31.7 µM (inactive) with K562. Further, the GI50 in the experiment with KM12 was 16.6 µM (inactive); in the experiment with NCI-H460 it was 38.7 µM (inactive); in the experiment on NCI-H522, 16.4 µM (inactive); in the experiment on OVCAR-5, > 100 µM (inactive); in the experiment on PC-3 it was 25.5 µM (inactive); in the experiment on RXF 393 it was > 100 µM (inactive). For the same molecule, the GI50 in the experiment on SF-295 is 17.7 µM (inactive); in the experiment with SK-MEL-28, 69 µM (inactive); with SNB-19, 37.8 µM (inactive); in the experiment on TK-10 it was > 100 µM (inactive).
Regarding `Nc1nc2c(ncn2C2C=CC(COS(N)(=O)=O)C2)c(=O)[nH]1` (configuration not stated), the GI50 with A549, in the experiment with ACHN, in the experiment with HCC 2998, in the experiment on HCT-116, with Hs-578T and in the experiment on K562 was > 100 µM (inactive) throughout. For the same molecule, the GI50 with KM12, in the experiment with MCF7, in the experiment on NCI-H460, in the experiment with OVCAR-5, in the experiment with PC-3 and with RXF 393 was > 100 µM (inactive) throughout. The GI50 with SF-295, with SK-MEL-28, in the experiment on SNB-19 and in the experiment on TK-10 was > 100 µM (inactive) each time.
Turning to `N#Cc1c(N)nc(-c2ccc(Cl)cc2)c2c1-c1ccccc1S(=O)(=O)CC2`, the GI50 with A498 was > 100 µM (inactive); in the experiment on A549, > 100 µM (inactive); with ACHN, > 100 µM (inactive); in the experiment on HCC 2998, > 100 µM (inactive); in the experiment on HCT-116, > 100 µM (inactive); in the experiment with Hs-578T, 46.1 µM (inactive). The GI50 was > 100 µM (inactive) in the experiment on K562; > 100 µM (inactive) with KM12; 45.1 µM (inactive) in the experiment on NCI-H460; 31 µM (inactive) in the experiment on NCI-H522; > 100 µM (inactive) in the experiment on OVCAR-5; > 100 µM (inactive) with PC-3. The GI50 was > 100 µM (inactive) with SK-MEL-28, 29.1 µM (inactive) with SNB-19 and > 100 µM (inactive) with TK-10.
`C=C1C(=O)O[C@H]2C(=O)[C@H](C)CCC/C(C)=C/CC[C@@]3(C)O[C@@H]3C[C@@H]12`: the GI50 with A498 is 18.4 µM (inactive); in the experiment on A549, 5.82 µM (inactive); in the experiment on ACHN, 1.34 µM (inactive); in the experiment on HCT-116, 1.05 µM (active); with Hs-578T, 6.34 µM (inactive); with K562, 2.07 µM (inactive). In addition, the GI50 with KM12 is 4.3 µM (inactive); in the experiment on MCF7, 3.02 µM (inactive); in the experiment with NCI-H460 it was 15.4 µM (inactive); in the experiment on NCI-H522, 1.67 µM (inactive); with OVCAR-5, 5.6 µM (inactive); in the experiment with PC-3, 6.76 µM (inactive). Further, the GI50 with SF-295 was 14 µM (inactive); with SNB-19, 11.4 µM (inactive); with TK-10, 0.135 µM (active).
In the case of `CC(OC(C)(C)C)[C@H](NC(=O)OCc1ccccc1)C(=O)NC(OCc1ccccc1)[C@H]1COC(C)(C)O1` (some centres not stated), the GI50 is > 10 µM (inactive) in the experiment on A498; 39.3 µM (inactive) with A549; > 10 µM (inactive) in the experiment with ACHN; > 10 µM (inactive) in the experiment on HCC 2998; 50.7 µM (inactive) in the experiment on HCT-116; > 10 µM (inactive) with Hs-578T. The GI50 with K562, in the experiment with KM12, in the experiment with NCI-H460, in the experiment on NCI-H522, in the experiment on OVCAR-5 and with PC-3 was > 10 µM (inactive) in each case. Besides, the GI50 is 21.8 µM (inactive) with RXF 393; > 10 µM (inactive) in the experiment with SF-295; > 100 µM (inactive) with SK-MEL-28; > 10 µM (inactive) with SNB-19; > 10 µM (inactive) in the experiment with TK-10.
With `O=C(Nc1nnc(-c2c(Cl)c(Cl)c(Cl)c(Cl)c2-c2nc3cc(C(=O)c4ccccc4)ccc3[nH]2)o1)c1ccc(Cl)cc1`, the GI50 with A498 is 18.2 µM (inactive); in the experiment on A549, 25.6 µM (inactive); with ACHN, 30.7 µM (inactive); with HCT-116 it was 36.5 µM (inactive); in the experiment with K562, 7.91 µM (inactive); in the experiment with KM12, 43.5 µM (inactive). The GI50 with MCF7 was 20.2 µM (inactive); with OVCAR-5, > 100 µM (inactive); in the experiment on PC-3, 25.1 µM (inactive); with RXF 393 it was 26.5 µM (inactive); with SF-295, 5.86 µM (inactive); with SK-MEL-28, 36.7 µM (inactive). The GI50 was 34 µM (inactive) in the experiment with SNB-19 and 51.9 µM (inactive) in the experiment with TK-10.
As for `C=CCn1c(=O)c2ccccc2[n+]2c(C)c(C(=O)OCC)sc12`, the GI50 in the experiment with A549, in the experiment with ACHN, in the experiment on HCC 2998, with HCT-116, in the experiment on Hs-578T and in the experiment on K562 was > 100 µM (inactive) throughout. The GI50 with KM12, with MCF7, in the experiment on NCI-H460, with NCI-H522, with OVCAR-5 and with PC-3 was > 100 µM (inactive) each time. Besides, the GI50 is > 100 µM (inactive) with RXF 393; 42.7 µM (inactive) in the experiment on SF-295; > 100 µM (inactive) in the experiment with SK-MEL-28; > 100 µM (inactive) in the experiment on SNB-19; > 100 µM (inactive) in the experiment on TK-10.

These data come from ChEMBL document CHEMBL1201862, “PubChem BioAssay data set” (2004).
